Laboratory results published in patent EP1806348A2, “Pyrido (2,3-D)Pyrimidines as inhibitors of cellular proliferation” (Warner-Lambert Company LLC, priority 1997, dated 1998).
Like-named read-outs stand apart in the source and are kept apart here.

Legend:
Type in all cases: biochemical
[1] = target: cdk4/D (Homo sapiens, UniProt P11802); experiment: Cyclin-dependent kinase 4 (cdk4) enzyme assay, 32P incorporation into retinoblastoma; details: for inhibition at 40 µM: read-out: cdk4/D % inhibition at 40 µM
Experimental: A typical assay, for instance, measures inhibitory activity against the cyclin D dependent kinase 4 enzyme (cdk4/D). […] The cdk 4 assay was carried out as follows.
(§1) All components except the ATP were added to the wells, and the plate was placed on a plate mixer for 2 minutes. […] The reaction was terminated by addition of 0.1 mL of 20% trichloroacetic acid (TCA). The plate was kept at 4°C for at least 1 hour to allow the substrate to precipitate. The wells were then washed five times with 0.2 mL of 10% TCA and ^32P incorporation was determined with a beta plate counter (Wallac Inc., Gaithersburg, MD).

[2] = target: cdk2/cyclinE (Homo sapiens, UniProt P24941); experiment: Cyclin-dependent kinase assay (cdk2/cyclinE); details: Table 1; read-out: cdk2/E IC50
Experimental: as §1, with “TCA.” for “trichloroacetic acid (TCA).”, “incorporation” for “incorporation was”

[3] = target: cdk2/cyclinA (Homo sapiens, UniProt P24941); experiment: Cyclin-dependent kinase assay (cdk2/cyclinA); details: Table 1
Experimental: as §1, with “TCA.” for “trichloroacetic acid (TCA).”, “incorporation” for “incorporation was”

[4] = target: cdc2/cyclinB (Homo sapiens, UniProt P06493); experiment: Cyclin-dependent kinase assay (cdc2/cyclinB); details: Table 1; read-out: cdk1/B IC50
Experimental: as §1, with “TCA.” for “trichloroacetic acid (TCA).”, “incorporation” for “incorporation was”

[5] = Table 1, 25 µM ATP, retinoblastoma substrate

Chain of cdk4/D (P11802 whole entry): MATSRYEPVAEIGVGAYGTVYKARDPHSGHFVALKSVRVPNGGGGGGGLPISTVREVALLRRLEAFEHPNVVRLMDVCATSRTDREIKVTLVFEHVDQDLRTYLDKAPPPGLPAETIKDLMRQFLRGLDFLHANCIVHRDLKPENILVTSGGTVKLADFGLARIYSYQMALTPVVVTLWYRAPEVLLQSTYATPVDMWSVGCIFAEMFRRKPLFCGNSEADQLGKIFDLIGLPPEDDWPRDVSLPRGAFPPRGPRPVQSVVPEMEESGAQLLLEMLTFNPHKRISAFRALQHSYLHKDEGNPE
Chain of cdk4/D (P24385 whole entry, further chain): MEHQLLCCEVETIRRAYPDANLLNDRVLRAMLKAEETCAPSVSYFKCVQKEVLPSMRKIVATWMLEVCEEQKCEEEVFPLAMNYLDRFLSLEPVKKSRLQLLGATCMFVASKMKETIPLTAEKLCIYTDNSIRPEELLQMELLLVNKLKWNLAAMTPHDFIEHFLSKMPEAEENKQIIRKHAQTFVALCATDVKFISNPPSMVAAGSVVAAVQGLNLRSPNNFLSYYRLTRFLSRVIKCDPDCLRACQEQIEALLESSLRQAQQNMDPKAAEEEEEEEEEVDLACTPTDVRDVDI
Chain of cdc2/cyclinB (P06493 whole entry): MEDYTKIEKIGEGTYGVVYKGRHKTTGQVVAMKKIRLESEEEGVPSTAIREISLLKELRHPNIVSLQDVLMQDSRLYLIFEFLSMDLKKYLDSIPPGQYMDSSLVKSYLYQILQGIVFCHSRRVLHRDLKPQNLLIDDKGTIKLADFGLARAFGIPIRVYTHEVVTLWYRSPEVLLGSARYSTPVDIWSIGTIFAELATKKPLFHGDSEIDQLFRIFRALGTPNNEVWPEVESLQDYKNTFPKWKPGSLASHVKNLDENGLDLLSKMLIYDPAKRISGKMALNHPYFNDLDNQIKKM
Chain of cdc2/cyclinB (P14635 whole entry, further chain): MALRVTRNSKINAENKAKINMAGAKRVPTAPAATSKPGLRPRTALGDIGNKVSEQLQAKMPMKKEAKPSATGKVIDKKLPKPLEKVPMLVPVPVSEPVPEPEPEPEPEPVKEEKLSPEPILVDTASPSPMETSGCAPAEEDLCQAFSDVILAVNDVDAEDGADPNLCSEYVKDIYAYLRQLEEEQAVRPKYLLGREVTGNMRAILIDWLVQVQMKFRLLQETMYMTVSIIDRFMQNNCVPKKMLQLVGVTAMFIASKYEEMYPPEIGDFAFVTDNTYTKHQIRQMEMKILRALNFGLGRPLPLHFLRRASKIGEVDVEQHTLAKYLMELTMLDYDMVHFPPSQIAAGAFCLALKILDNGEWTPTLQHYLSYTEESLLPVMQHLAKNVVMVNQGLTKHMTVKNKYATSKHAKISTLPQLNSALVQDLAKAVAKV

SMILES	IC50 [1, 5]	IC50 [2]	IC50 [3]	IC50 [4]	further results
CC(C)Nc1ncc2ccc(=O)n(C)c2n1 [Example 67, 2-Isopropylamino-8-methyl-8H-pyrido[2,3-d]pyrimidin-7-one]	25 µM				
Cn1c(=O)ccc2cnc(Nc3ccccc3)nc21 [Example 61, 8-Methyl-2-phenylamino-8H-pyrido[2,3-d]pyrimidin-7-one]	6.9 µM	0.86 µM	0.49 µM	1.76 µM	
CCn1c(=O)ccc2cnc(Nc3cccc(F)c3OC)nc21 [Example 91, 8-Ethyl-2-(3-fluoro-2-methoxyphenylamino)-8H-pyrido[2,3-d]pyrimidin-7-one]	9 µM				
CCn1c(=O)ccc2cnc(NC(C)C)nc21 [Example 47, 8-Ethyl-2-isopropylamino-8H-pyrido[2,3-d]pyrimidin-7-one]	3.7 µM			3.55 µM	
CCN(CC)c1ccc(Nc2ncc3ccc(=O)n(CC)c3n2)cc1 [Example 78, 2-(4-Diethylamino-phenylamino)-8-ethyl-8H-pyrido[2,3-d]pyrimidin-7-one]	1.3 µM	2.94 µM	2.24 µM	0.74 µM	
CCC(CC)n1c(=O)ccc2cnc(Nc3ccc(N4CCN(C)CC4)cc3)nc21 [Example 77, 8-(1-Ethylpropyl)-2-[4-(4-methylpiperazin-1-yl)-phenylamino]-8H-pyrido[2,3-d]pyrimidin-7-one]	0.014 µM	0.068 µM	0.028 µM	0.141 µM	
CCN1C(=O)CCc2cnc(Nc3ccccc3)nc21 [Example 69, 8-Ethyl-2-phenylamino-5,8-dihydro-6H-pyrido[2,3-d]pyrimidin-7-one]	4.3 µM				
O=c1ccc2cnc(Nc3ccccc3)nc2n1CCCOc1ccccc1 [Example 87, 8-(3-Phenoxypropyl)-2-phenylamino-8H-pyrido[2,3-d]pyrimidin-7-one]				1.08 µM	
CCn1c(=O)c(C)cc2cnc(Nc3ccccc3)nc21 [Example 83, 8-Ethyl-6-methyl-2-phenylamino-8H-pyrido[2,3-d]pyrimidin-7-one]	1.8 µM				
CCn1c(=O)ccc2cnc(Nc3ccc(N4CCN(C)CC4)cc3)nc21 [Example 53, 8-Ethyl-2-[4-(4-methylpiperazin-1-yl)-phenylamino]-8H-pyrido[2,3-d]pyrimidin-7-one]	0.085 µM	1.19 µM	0.339 µM	1.88 µM	
Cn1c(=O)ccc2cnc(NCCc3ccccn3)nc21 [Example 66, 8-Methyl-2-(2-pyridin-2-yl-ethylamino)-8H-pyrido[2,3-d]pyrimidin-7-one]	45 µM				
CCn1c(=O)ccc2cnc(Nc3cccc(F)c3)nc21 [Example 89, 8-Ethyl-2-(3-fluorophenylamino)-8H-pyrido[2,3-d]pyrimidin-7-one]	1.4 µM				
CCNc1ncc2ccc(=O)n(-c3ccccc3)c2n1 [Example 100, 2-Ethylamino-8-phenyl-8H-pyrido[2,3-d]pyrimidin-7-one]	19 µM				
CCNc1nc(Nc2ccccc2)ncc1C=CC#N [Example 72, 3-(4-Ethylamino-2-phenylamino-pyrimidin-5-yl)acrylonitrile]					inhibition at 40 µM [1]: 18%
COCCn1c(=O)ccc2cnc(Nc3ccccc3)nc21 [Example 86, 8-(2-Methoxyethyl)-2-phenylamino-8H-pyrido[2,3-d]pyrimidin-7-one]	2.4 µM				
CCNc1ncc2ccc(=O)n(CC)c2n1 [Example 45, 8-Ethyl-2-ethylamino-8H-pyrido[2,3-d]pyrimidin-7-one]	12 µM	3.93 µM	2.46 µM	9.23 µM	
CCNc1nc(Nc2ccccc2)ncc1C(C)=CC(=O)OCC [Example 73, 3-(4-Ethylamino-2-phenylamino-pyrimidin-5-yl)-but-2-enoic acid ethyl ester]					inhibition at 40 µM ([1]; at 40 µM, Table 2): 58%
CCn1c(=O)ccc2cnc(NC3CCCCC3)nc21 [Example 48, 2-Cyclohexylamino-8-ethyl-8H-pyrido[2,3-d]pyrimidin-7-one]	3.3 µM	0.592 µM	0.23 µM	2.61 µM	
CCn1c(=O)ccc2cnc(NCc3ccccc3)nc21 [Example 44, 2-Benzylamino-8-ethyl-8H-pyrido[2,3-d]pyrimidin-7-one]			6.46 µM	16.7 µM	
CCCCNc1ncc2ccc(=O)n(C)c2n1 [Example 64, 2-Butylamino-8-methyl-8H-pyrido[2,3-d]pyrimidin-7-one]	40 µM				
CCn1c(=O)ccc2cnc(Nc3ccc(N4CCOCC4)cc3)nc21 [Example 79, 8-Ethyl-2-(4-morpholin-4-yl-phenylamino)-8H-pyrido[2,3-d]pyrimidin-7-one]	0.3 µM				

SMILES	IC50 [1, 5]	IC50 [2]	IC50 [3]	IC50 [4]	further results
CCn1c(=O)ccc2cnc(NC(C)(C)C)nc21 [Example 46, 2-tert-Butylamino-8-ethyl-8H-pyrido[2,3-d]pyrimidin-7-one]	5.3 µM			3.41 µM	
O=c1ccc2cnc(Nc3ccccc3)nc2n1CC1CO1 (stereo not drawn) [Example 39, 8-Oxiranylmethyl-2-phenylamino-8H-pyrido[2,3-d]pyrimidin-7-one]	5 µM				
CC(C)n1c(=O)ccc2cnc(Nc3ccccc3)nc21 [Example 43, 8-Isopropyl-2-phenylamino-8H-pyrido[2,3-d]pyrimidin-7-one]	0.15 µM	0.126 µM	0.031 µM	0.44 µM	
CCC(CC)n1c(=O)ccc2cnc(Nc3ccccc3)nc21 [Example 74, 8-(1-Ethylpropyl)-2-phenylamino-8H-pyrido[2,3-d]pyrimidin-7-one]	0.141 µM				
CCn1c(=O)ccc2cnc(Nc3ccc(N(C)C)cc3)nc21 [Example 93, 2-(4-Dimethylamino-phenylamino)-8-ethyl-8H-pyrido[2,3-d]pyrimidin-7-one]	0.38 µM	1.77 µM	0.28 µM	0.78 µM	
Cn1c(=O)ccc2cnc(NCc3ccccc3)nc21 [Example 63, 2-Benzylamino-8-methyl-8H-pyrido[2,3-d]pyrimidin-7-one]			38.1 µM	21.6 µM	
CCC(C)n1c(=O)ccc2cnc(Nc3ccccc3)nc21 (stereo not drawn) [Example 85, 8-sec-Butyl-2-phenylamino-8H-pyrido[2,3-d]pyrimidin-7-one]	0.2 µM				
CCn1c(=O)ccc2cnc(Nc3ccc(OC)c(F)c3)nc21 [Example 90, 8-Ethyl-2-(3-fluoro-4-methoxyphenylamino)-8H-pyrido[2,3-d]pyrimidin-7-one]	1 µM				
COc1ccc(Cn2c(=O)ccc3cnc(Nc4ccccc4)nc32)cc1 [Example 58, 8-(4-Methoxybenzyl)-2-phenylamino-8H-pyrido[2,3-d]pyrimidin-7-one]	10 µM				
O=c1ccc2cnc(Nc3ccccc3)nc2[nH]1 [Example 32, 2-Phenylamino-8H-pyrido[2,3-d]pyrimidin-7-one]		12.8 µM	4.66 µM	32.6 µM	
COCn1c(=O)ccc2cnc(Nc3ccccc3)nc21 [Example 37, 8-Methoxymethyl-2-phenylamino-8H-pyrido[2,3-d]pyrimidin-7-one]	4.2 µM				
CCNc1nc(Nc2ccccc2)ncc1CCC(=O)OCC [Example 68, 3-(4-Ethylamino-2-phenylamino-pyrimidin-5-yl)propionic acid ethyl ester]					IC50 ([1]; Table 2, Formula II compounds): 90 µM; inhibition at 40 µM ([1]; at 40 µM, Table 2): 37%
CCn1c(=O)ccc2cnc(Nc3ccc(O)cc3)nc21 [Example 55, 8-Ethyl-2-(4-hydroxyphenylamino)-8H-pyrido[2,3-d]pyrimidin-7-one]	0.6 µM				
CCn1c(=O)ccc2cnc(Nc3ccc(-c4ccccc4)cc3)nc21 [Example 49, 2-(Biphenyl-4-ylamino)-8-ethyl-8H-pyrido[2,3-d]pyrimidin-7-one]	2 µM				
O=c1ccc2cnc(Nc3ccccc3)nc2n1C1CCCCCC1 [Example 155, 8-Cycloheptyl-2-phenylamino-8H-pyrido[2,3-d]pyrimidin-7-one]	0.182 µM	0.024 µM	0.009 µM	0.065 µM	
CCn1c(=O)ccc2cnc(Nc3ccc(OCCOC)cc3)nc21 [Example 57, 8-Ethyl-2-[4-(2-methoxyethoxy)phenylamino]-8H-pyrido[2,3-d]pyrimidin-7-one]	0.8 µM				
CCn1c(=O)ccc2cnc(Nc3ccc(OC)cc3)nc21 [Example 51, 8-Ethyl-2-(4-methoxyphenylamino)-8H-pyrido[2,3-d]pyrimidin-7-one]	0.6 µM	0.422 µM	0.134 µM	0.665 µM	
CCn1c(=O)ccc2cnc(Nc3cccc(OC(F)(F)C(F)F)c3)nc21 [Example 54, 8-Ethyl-2-[3-(1,1,2,2-tetrafluoroethoxy)-phenylamino]-8H-pyrido[2,3-d]pyrimidin-7-one]	7.83 µM	1.2 µM	0.238 µM	0.091 µM	
CCn1c(=O)ccc2cnc(Nc3ccc(F)cc3)nc21 [Example 88, 8-Ethyl-2-(4-fluorophenylamino)-8H-pyrido[2,3-d]pyrimidin-7-one]	1.3 µM	0.28 µM	0.44 µM	2.07 µM	
CCn1c(=O)ccc2cnc(Nc3ccc(OCc4ccccc4)cc3)nc21 [Example 56, 2-Benzyloxyphenylamino-8-ethyl-8H-pyrido[2,3-d]pyrimidin-7-one]	25 µM				
